{
  "source": "patent US12685773B2",
  "about": "(priority 2020, dated 2026)",
  "key": {"relapsed/refractory HL": {"system": "relapsed/refractory HL", "details": "cited from earlier work"}, "[1]": {"details": "9 patients evaluated at 6 weeks after infusion"}, "[2]": {"details": "3 patients did not have data at 3 months"}, "[3]": {"details": "AE of special interest, classical HL patients"}, "[4]": {"details": "Grade 3 or higher AE, classical HL patients"}, "[5]": {"details": "not resolved by Day 28, classical HL patients"}},
  "data": [
    {"compound": "cyclophosphamide and fludarabine", "values": [
      {"measurement": "CR", "setting": "relapsed/refractory HL; [1]", "value": 66.6, "unit": "%"},
      {"measurement": "ORR", "setting": "relapsed/refractory HL; [1]", "value": 66.6, "unit": "%"},
      {"measurement": "PD", "setting": "relapsed/refractory HL; [1]", "value": 33.3, "unit": "%"},
      {"measurement": "disease progression: patients", "setting": "relapsed/refractory HL; out of 9 patients evaluated at 6 weeks after infusion", "value": 3},
      {"measurement": "CR: patients", "setting": "relapsed/refractory HL; out of 9 patients evaluated at 6 weeks after infusion, cyclophosphamide 500 mg/m^2 and fludarabine 30 mg/m^2 daily for 3 days", "value": 6}
    ]},
    {"compound": "Cn1c(CCCC(=O)O)nc2cc(N(CCCl)CCCl)ccc21", "note": "[Benda]", "values": [
      {"measurement": "Prolonged Grade 3/4 Anemia (at month 3): n", "setting": "[2]", "value": 0},
      {"measurement": "Prolonged Grade 3/4 Neutropenia (at month 3): n", "setting": "[2]", "value": 0},
      {"measurement": "Prolonged Grade 3/4 Thrombocytopenia (at month 3): n", "setting": "[2]", "value": 0},
      {"measurement": "Cytokine Release Syndrome (all Grade 1): %", "setting": "[3]", "value": "(13) %"},
      {"measurement": "Cytokine Release Syndrome (all Grade 1): n", "setting": "[3]", "value": 1},
      {"measurement": "Anemia: n", "setting": "[4]", "value": 0},
      {"measurement": "Dyspnea: n", "setting": "[4]", "value": 0},
      {"measurement": "Headache: n", "setting": "[4]", "value": 0},
      {"measurement": "Hypoalbuminemia: n", "setting": "[4]", "value": 0},
      {"measurement": "Hyponatremia: n", "setting": "[4]", "value": 0},
      {"measurement": "Leukopenia: %", "setting": "[4]", "value": "(38) %"},
      {"measurement": "Leukopenia: n", "setting": "[4]", "value": 3},
      {"measurement": "Lung Infection: n", "setting": "[4]", "value": 0},
      {"measurement": "Lymphopenia: %", "setting": "[4]", "value": "(100) %"},
      {"measurement": "Lymphopenia: n", "setting": "[4]", "value": 8},
      {"measurement": "Neutropenia: %", "setting": "[4]", "value": "(25) %"},
      {"measurement": "Neutropenia: n", "setting": "[4]", "value": 2},
      {"measurement": "Pharyngitis: n", "setting": "[4]", "value": 0},
      {"measurement": "Rash: n", "setting": "[4]", "value": 0},
      {"measurement": "Thrombocytopenia: %", "setting": "[4]", "value": "(13) %"},
      {"measurement": "Thrombocytopenia: n", "setting": "[4]", "value": 1},
      {"measurement": "Grade 3/4 Anemia at day 28: n", "setting": "classical HL patients", "value": 0},
      {"measurement": "Rash (Any Grade): %", "setting": "classical HL patients", "value": "(25) %"},
      {"measurement": "Rash (Any Grade): n", "setting": "classical HL patients, maculopapular skin rash", "value": 2},
      {"measurement": "Grade 3/4 Neutropenia at day 28: n", "setting": "[5]", "value": 0},
      {"measurement": "Grade 3/4 Thrombocytopenia at day 28: n", "setting": "[5]", "value": 0}
    ]}
  ]
}
